Experimental data reported in article PMC6271602, “PBDE: Structure-Activity Studies for the Inhibition of Hepatitis C Virus NS3 Helicase” (Molecules, 2014).
Where two headings read alike, the source gives them in different places.

Assays:
[1] = Toxicity assay (MTS); assay type: cell-based; conditions: cell lines harboring the subgenomic replicon RNAs, replicon cells, read-out: cytotoxic effect, CC50
Protocol: MTS assay was carried out to determine cytotoxicity using a CellTiter 96 aqueous one-solution cell proliferation assay kit (Promega) according to the manufacturer’s instructions.

[2] = target: HCV NS3 helicase (Hepatitis C virus genotype 1b, UniProt Q9WMX2); assay type: biochemical; conditions: FRET screening; strongest of 41 extracts
Chain of HCV NS3 helicase (Q9WMX2 1027-1657): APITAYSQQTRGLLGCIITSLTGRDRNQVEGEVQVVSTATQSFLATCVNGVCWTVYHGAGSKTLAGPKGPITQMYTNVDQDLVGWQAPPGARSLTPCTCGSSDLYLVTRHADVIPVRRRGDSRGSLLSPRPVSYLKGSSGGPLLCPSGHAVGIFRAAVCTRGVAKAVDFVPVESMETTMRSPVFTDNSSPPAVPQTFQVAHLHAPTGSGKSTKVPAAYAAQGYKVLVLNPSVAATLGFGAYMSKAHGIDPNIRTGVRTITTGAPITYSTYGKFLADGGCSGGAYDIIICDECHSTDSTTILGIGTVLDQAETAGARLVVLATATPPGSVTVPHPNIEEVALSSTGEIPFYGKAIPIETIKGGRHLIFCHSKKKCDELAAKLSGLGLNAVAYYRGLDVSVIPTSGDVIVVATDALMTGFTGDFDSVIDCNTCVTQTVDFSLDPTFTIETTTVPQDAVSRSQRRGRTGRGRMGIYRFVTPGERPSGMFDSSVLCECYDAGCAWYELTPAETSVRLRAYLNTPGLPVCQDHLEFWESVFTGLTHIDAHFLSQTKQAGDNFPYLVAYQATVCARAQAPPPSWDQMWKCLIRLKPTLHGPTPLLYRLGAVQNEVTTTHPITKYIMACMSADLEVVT

[3] = tested on: subgenomic replicon RNA of genotype 1b N strain; experiment: HCV replication assay (subgenomic replicon, luciferase); assay type: cell-based; conditions: Hepatitis C virus, genotype 1b strain N replicon, 72 h, read-out: suppression of HCV replication, EC50
Protocol: The cell lines harboring the subgenomic replicon RNAs of genotype 1b strain N [27] were seeded at 2 × 10^4 cells per well in a 48-well plate 24 h before treatment. The cells were treated with PBDE at various concentrations for 72 h and lysed in cell culture lysis reagent (Promega). A luciferase assay system (Promega) was used to determine the luciferase activity, and the luminescence was measured using Luminescencer-JNR AB-2100 (ATTO, Tokyo, Japan), corresponding to the expression level of the HCV replicon.

[4] = target: T1, bacterial alkaline phosphatase (Escherichia coli, UniProt P00634); experiment: ATPase assay with bacterial alkaline phosphatase (specificity); assay type: biochemical; conditions: highest concentration tested, 200 μM
T1 construct: purchased Takara Bio BAPC75
T1 sequence (P00634 22-471): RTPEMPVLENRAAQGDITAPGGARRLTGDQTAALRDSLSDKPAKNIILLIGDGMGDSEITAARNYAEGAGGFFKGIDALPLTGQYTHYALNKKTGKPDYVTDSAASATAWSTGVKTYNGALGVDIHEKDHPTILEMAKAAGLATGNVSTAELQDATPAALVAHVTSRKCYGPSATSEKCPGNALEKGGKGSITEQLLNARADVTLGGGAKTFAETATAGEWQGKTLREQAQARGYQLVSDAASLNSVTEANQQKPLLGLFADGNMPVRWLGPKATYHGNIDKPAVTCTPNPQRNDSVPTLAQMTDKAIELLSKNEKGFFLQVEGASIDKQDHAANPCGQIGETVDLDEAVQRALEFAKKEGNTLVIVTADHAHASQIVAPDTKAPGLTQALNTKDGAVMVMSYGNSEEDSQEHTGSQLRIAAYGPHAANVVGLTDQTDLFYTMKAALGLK
Protocol: (§1) Following our previous report, unless otherwise stated, the standard assay reaction (10 μL) contained the following components: 25 mM MOPS-NaOH (pH 7.0), 1 mM DTT, 5 mM MgCl2, 5 mM CaCl2, 1 mM [γ-^32P] ATP, 300 nM NS3, and 0.1 μg/μL poly(U) with serial dilution of the tested compounds in DMSO. Samples were incubated at 37 °C for 10 min, and the reaction was terminated by adding 15 μL of stop solution (10 mM EDTA). A small portion (2 μL) of reaction mixture was spotted on a PEI-cellulose TLC plate (Merck Millipore, Darmstadt, Germany) and developed by ascending chromatography in 0.75 M LiCl/1 M formic acid solution for 25 min. The TLC plate was then air-dried, and applied to autoradiography measured by an Image Reader FLA-9000 and quantified by Multi Gauge V3.11 software (Fujifilm, Tokyo, Japan). For the bacterial alkaline phosphatase assay, the buffer provided with the kit (Takara Bio, Otsu, Japan) was used, and then subjected to the assay as described above.

[5] = target: NS3 RNA binding (Hepatitis C virus genotype 1b, UniProt Q9WMX2); experiment: Gel mobility shift assay (NS3 binding to ssRNA)
Chain of NS3 RNA binding (Q9WMX2 1027-1657): as the sequence (Q9WMX2 1027-1657) above
Protocol: GMSA was performed with slight modification as described previously. In brief, [γ-^32P] ATP-labeled single-stranded RNA (0.4 nM) was incubated in a buffer containing 30 mM Tris-HCl pH 7.5, 100 mM NaCl, 2 mM MgCl2, 1 mM DTT, 20 U of RNasin plus (Promega) in the presence of 300 nM NS3 protein with serial dilution of PBDE in DMSO at room temperature for 15 min in a final reaction volume of 20 μL. The protein-RNA complexes were loaded onto a 6% native-PAGE (acrylamide:bis = 19:1) and after electrophoresis in TBE buffer, the labeled RNA bands were visualized and quantified with an Image Reader FLA-9000 (Fujifilm) and Multi Gauge V3.11 software (Fujifilm), respectively.

[6] = target: T2, NS3 ATPase activity (HCV NS3 protein) (Hepatitis C virus genotype 1b, UniProt Q9WMX2); experiment: Radioisotope labeling ATP hydrolysis (ATPase) assay; assay type: biochemical; conditions: for NS3 ATPase inhibition (result in words): structure-activity discussion of Table 2
T2 sequence (Q9WMX2 1027-1657): as above
Protocol: as §1

[7] = target: T2, NS3 ATPase activity (HCV NS3 protein); experiment: as above; assay type: biochemical; conditions: PBDE 0.1 mM, NS3 600 nM, 1 mM ATP
[8] = 300 nM NS3, 1 mM [γ-32P] ATP, read-out: NS3 ATPase Inhibition IC50

Structure (SMILES) | IC50 [6] | NS3 ATPase inhibition (result in words) [6] | further results
Oc1cc(Br)cc(Br)c1Oc1ccc(Br)cc1Br [Compound 1, 6-hydroxy-2,2',4,4'-tetrabromodiphenyl ether] | 80 µM | – | CC50 at 72 h [1]: > 5 µM; inhibition of NS3 helicase activity [2]: 37%; EC50 [3]: 3.3 µM; inhibition of ATPase activity of bacterial alkaline phosphatase [4]: no inhibition; IC50 [5]: 68 µM; NS3 ATPase inhibition in presence and absence of poly(U) RNA [7]: significantly active in both the presence and absence of poly(U)
COc1cc(Br)cc(Br)c1Oc1ccc(Br)cc1Br [Compound 2, PBDE methyl ether] | > 200 µM | complete loss of the inhibitory activity | –
Oc1c(Br)cc(Br)cc1-c1cc(Br)cc(Br)c1O [Compound 3, Bromophene] | 94 µM | remained at the same level as that of PBDE (1) | –
Oc1cc(Cl)ccc1Oc1ccc(Cl)cc1Cl [Compound 4, triclosan, reference compound] | 150 µM | moderate levels of inhibition | –
Oc1c(Br)cc(Br)cc1Br [Compound 5, 2,4,6-tribromophenol] | > 200 µM | did not exhibit the inhibitory activity | –
CC(C)(c1cc(Br)c(O)c(Br)c1)c1cc(Br)c(O)c(Br)c1 [Compound 6, 3,3',5,5'-tetrabromobisphenol A] | 120 µM | same level of inhibition as that of bromophene 3 | –
Oc1ccccc1-c1ccccc1 [Compound 7, O-hydroxybiphenyl] | > 200 µM | loss of the inhibitory activity | –
Oc1ccc2cc(Br)ccc2c1-c1c(O)ccc2cc(Br)ccc12 [Compound 8, (R)-(−)-6,6'-dibromo-1,1'-bi-2-naphthol] | – | most potent activity | IC50 [6, 8]: 54 µM
CC(C)(c1cc(Cl)c(O)c(Cl)c1)c1cc(Cl)c(O)c(Cl)c1 [Compound 9, tetrachlorobisphenol A] | 94 µM | same level of inhibition as that of bromophene 3 | –
Oc1ccc2cc(Br)ccc2c1Br [Compound 10, 1,6-dibromo-2-naphthol] | > 200 µM | did not exhibit the inhibitory activity | –
Oc1c(F)c(F)c(-c2c(F)c(F)c(F)c(F)c2F)c(F)c1F [Compound 11, 2,3,5,6-tetrafluoro-4-(pentafluorophenyl)phenol] | > 200 µM | inactive | –
Oc1c(Br)cc2ccccc2c1-c1c(O)c(Br)cc2ccccc12 [Compound 12, (R)-(+)-3-3'-dibromo-1,1'-bi-2-naphthol] | – | no activity | IC50 [6, 8]: > 200 µM
Oc1c(Br)cc2c(c1-c1c(O)c(Br)cc3c1CCCC3)CCCC2 [Compound 13, (R)-(+)-3,3'-dibromo-5,5',6,6',7,7',8,8'-octahydro-1,1'-bi-2,2'-naphthalenediol] | – | no activity | IC50 [6, 8]: > 200 µM
CC(C)(c1cc(Br)c(OCCO)c(Br)c1)c1cc(Br)c(OCCO)c(Br)c1 [Compound 14, 4,4'-isopropylidenebis[2-(2,6-dibromophenoxy)ethanol]] | > 200 µM | loss of activity | –
Oc1ccc(Cl)cc1-c1cc(Cl)c(Cl)c(Cl)c1Cl [Compound 15, 2-Hydroxy-2',3',4',5,5'-pentachlorobiphenyl] | 54 µM | most potent inhibitory activity of all the analogs in this study | –
Oc1c(-c2ccccc2)cc(-c2ccc(Br)cc2)cc1-c1ccccc1 [Compound 16, 4-(4-bromophenyl)-2,6-diphenylphenol] | – | did not show inhibitory activity | IC50 [6, 8]: > 200 µM
Brc1ccc(Oc2ccc(Br)cc2Br)c(Br)c1 [Compound 17, 2,2',4,4'-tetrabromodiphenyl ether] | > 200 µM | complete loss of the inhibitory activity | –
